Measured values taken from patent US20200095241A1, “SUBSTITUTED 1,2,4-THIADIAZOLYLPYRROLONES AND 1,2,4-THIADIAZOLYLHYDANTOINS AND SALTS THEREOF AND USE THEREOF AS HERBICIDES” (Bayer CropScience Aktiengesellschaft, priority 2016, published 2020).

How the values were obtained:
[1] = test system: Stellaria media; assay: Post-emergence herbicidal action; type: in vivo; settings: Stellaria media, 504 h, 1280 g/ha, about 3 weeks after treatment, read-out: Stellaria media, herbicidal activity rated visually
Method: (§1) Seeds of monocotyledonous and dicotyledonous weeds and crop plants were placed in sandy loam in plastic or wood-fiber pots, covered with soil and cultivated in a greenhouse under controlled growth conditions. 2 to 3 weeks after sowing, the test plants were treated at the one-leaf stage. The compounds of the invention, formulated in the form of wettable powders (WP) or as emulsion concentrates (EC), were then sprayed onto the green parts of the plants as aqueous suspension or emulsion with addition of 0.5% additive at a water application rate of 600 l/ha (converted). After the test plants had been kept in the greenhouse under optimum growth conditions for about 3 weeks, the activity of the preparations was rated visually in comparison to untreated controls. For example, 100% activity=the plants have died, 0% activity=like control plants. Tables A1 to A12 below show the effects of selected compounds of the general formula (I) according to Tables I.1 to I.44 on various harmful plants and an application rate corresponding to 1280 g/ha or 320 g/ha, which were obtained by the experimental procedure mentioned above.

[2] = test system: Setaria viridis; assay: Post-emergence herbicidal action; type: in vivo; settings: Setaria viridis, 504 h, 1280 g/ha, about 3 weeks after treatment, read-out: Setaria viridis, herbicidal activity rated visually
Method: as §1

[3] = test system: Pharbitis purpurea; assay: Post-emergence herbicidal action; type: in vivo; settings: 1280 g/ha, about 3 weeks after treatment
Method: as §1

[4] = test system: Abutilon theophrasti; assay: Post-emergence herbicidal action; type: in vivo; settings: Abutilon theophrasti, 504 h, 1280 g/ha, about 3 weeks after treatment, read-out: Abutilon theophrasti, herbicidal activity rated visually
Method: as §1

[5] = test system: Hordeum murinum; assay: Post-emergence herbicidal action; type: in vivo; settings: 1280 g/ha, about 3 weeks after treatment
Method: as §1

[6] = test system: Viola tricolor; assay: Post-emergence herbicidal action; type: in vivo; settings: 504 h, 1280 g/ha, about 3 weeks after treatment, read-out: Viola tricolor, herbicidal activity rated visually
Method: as §1

[7] = molecular target: T1, photosystem II (PS II) (Spinacia oleracea, UniProt P69560); assay: Measurement of the PS II activity in thylakoid membranes (DCPIP reduction); type: biochemical; settings: 100 μM test compound, spinach thylakoid membranes, DCPIP 120 μM, 10 min at 22° C. with exposure to light; read-out: Effect (inhibition of PS II activity)
T1 construct: the chloroplasts were osmotically ruptured and the thylakoid membranes were then obtained by centrifugation; from tissue; host or cells: fresh spinach leaves; thylakoid membranes isolated from chloroplasts
Method: Cooled fresh spinach leaves were comminuted and homogenized in 50 mM phosphate buffer, pH 6.8. 10 mM KCl, 0.34 M sucrose (sucrose buffer) (blender, 1 g of plant material/ml). The homogenate was subsequently filtered through 4 layers of Miracloth and the chloroplasts were isolated by centrifugation, i.e. 10 min of centrifugation at 4400×g (4° C.). The sediment was suspended in 25 ml of sucrose buffer and re-centrifuged for 10 min at 4400×g (4° C.). The sediment was then suspended in 40 ml of 50 mM phosphate buffer, pH 6.8, 10 mM KCl, without sucrose. In this step, the chloroplasts were osmotically ruptured and the thylakoid membranes were then obtained by centrifugation (10 min, 4400×g, 4° C.). The membrane sediment was finally suspended in 20 ml of 50 mM phosphate buffer, pH 6.8, 10 mM KCl. Following protein determination and activity determination, the membrane suspension was divided into aliquots and frozen in liquid nitrogen. The aliquots were stored at −80° C. Under these conditions, the photosystem II preparation was storage stable for at least three months. The activity determination of photosystem II (PS II) was then carried out using the following test principle:
The electron transfer from PS II to an artificial electron acceptor, 2,6-dichlorophenolindophenol (DCPIP), was measured with exposure to light. The concentration of the blue oxidized form of DCPIP was determined spectrophotometrically at wavelength λ=595 nm. […] The activity determination was carried out in microtiter plates (96 cavities) in a reaction volume of 200 μl. Here, 155 μl of dilute membrane suspension were initially charged in 50 mM of phosphate buffer, pH 6.8, 10 mM KCl. Depending on the activity of the PS II preparation, the dilution was adjusted such that the measurement of the decrease in absorption (λ=595 nm) was linear for at least 10 min. In each case 5 μl solution of the test compounds of a concentration of 100 μM in DMSO were added to the enzyme suspension; controls contained 5 μl DMSO; the final concentration of DMSO in the reaction batch was thus 2.5% (v/v); this concentration had no adverse effect on the enzymatic activity. On each microtiter plate, a known PS II inhibitor, for example metribuzin, was used as standard, which allowed the quality of the PS II test to be assessed. The reaction was started by addition of 40 μl DCPIP solution (600 μM in distilled water); the final concentration of DCPIP was 120 μM. Measurement of absorption was carried out over a period of 10 min at 22° C. and with exposure to light. Using metribuzin as comparative substance, the results for the efficacy of the compounds of the general formula (I) at 100 μM are stated in the table below using the following classification: ++++ (inhibition≥90%), +++ ([…]≥70%), ++ (70%>inhibition≥50%), + (50%>inhibition≥30%).

[8] = test system: Alopecurus myosuroides; assay: Pre-emergence herbicidal action; type: in vivo; settings: 1280 g/ha, after about 3 weeks
Source text: (§2) Seeds of monocotyledonous and dicotyledonous weed plants and crop plants were placed in plastic or organic planting pots and covered with soil. The compounds of the invention, formulated in the form of wettable powders (WP) or as emulsion concentrates (EC), were then applied onto the surface of the covering soil as aqueous suspension or emulsion with addition of 0.5% additive at a water application rate of 600 l/ha (converted). After the treatment, the pots were placed in a greenhouse and kept under good growth conditions for the test plants. After about 3 weeks, the effect of the preparations was scored visually in comparison with untreated controls as percentages. For example, 100% activity=the plants have died, 0% activity=like control plants. Tables B1 to B15 below show the effects of selected compounds of the general formula (I) according to Tables I.1 to I.44 on various harmful plants and an application rate corresponding to 1280 g/ha or 320 g/ha, which were obtained by the experimental procedure mentioned above.

[9] = test system: Stellaria media; assay: Pre-emergence herbicidal action; type: in vivo; settings: Stellaria media, 504 h, 1280 g/ha, after about 3 weeks, read-out: Stellaria media, herbicidal effect scored visually
Source text: as §2

[10] = test system: Setaria viridis; assay: Pre-emergence herbicidal action; type: in vivo; settings: Setaria viridis, 504 h, 1280 g/ha, after about 3 weeks, read-out: Setaria viridis, herbicidal effect scored visually
Source text: as §2

[11] = test system: Abutilon theophrasti; assay: Pre-emergence herbicidal action; type: in vivo; settings: 1280 g/ha, after about 3 weeks
Source text: as §2

[12] = test system: Matricaria inodora; assay: Pre-emergence herbicidal action; type: in vivo; settings: Tripleurospermum inodorum, 504 h, after about 3 weeks, read-out: Matricaria inodora, herbicidal effect scored visually
Source text: as §2

[13] = test system: Viola tricolor; assay: Pre-emergence herbicidal action; type: in vivo; settings: Viola tricolor, 504 h, 1280 g/ha, after about 3 weeks, read-out: Viola tricolor, herbicidal effect scored visually
Source text: as §2

[14] = test system: Polygonum convolvulus; assay: Pre-emergence herbicidal action; type: in vivo; settings: 1280 g/ha, after about 3 weeks
Source text: as §2

[15] = test system: Amaranthus retroflexus; assay: Post-emergence herbicidal action; type: in vivo; settings: 1280 g/ha, about 3 weeks after treatment
Method: as §1

[16] = test system: Alopecurus myosuroides; assay: Post-emergence herbicidal action; type: in vivo; settings: 1280 g/ha, about 3 weeks after treatment
Method: as §1

[17] = test system: Matricaria inodora; assay: Post-emergence herbicidal action; type: in vivo; settings: 1280 g/ha, about 3 weeks after treatment
Method: as §1

[18] = test system: Veronica persica; assay: Post-emergence herbicidal action; type: in vivo; settings: about 3 weeks after treatment
Method: as §1

[19] = test system: Pharbitis purpurea; assay: Pre-emergence herbicidal action; type: in vivo; settings: 1280 g/ha, after about 3 weeks
Source text: as §2

[20] = test system: Lolium rigidum; assay: Pre-emergence herbicidal action; type: in vivo; settings: 1280 g/ha, after about 3 weeks
Source text: as §2

[21] = test system: Polygonum convolvulus; assay: Post-emergence herbicidal action; type: in vivo; settings: 1280 g/ha, about 3 weeks after treatment
Method: as §1

[22] = test system: Amaranthus retroflexus; assay: Pre-emergence herbicidal action; type: in vivo; settings: after about 3 weeks
Source text: as §2

[23] = test system: Veronica persica; assay: Pre-emergence herbicidal action; type: in vivo; settings: 1280 g/ha, after about 3 weeks
Source text: as §2

[24] = test system: Echinochloa crus-galli; assay: Post-emergence herbicidal action; type: in vivo; settings: 1280 g/ha, about 3 weeks after treatment
Method: as §1

[25] = test system: Echinochloa crus-galli; assay: Pre-emergence herbicidal action; type: in vivo; settings: 1280 g/ha, after about 3 weeks
Source text: as §2

[26] = test system: Poa annua; assay: Pre-emergence herbicidal action; type: in vivo; settings: 1280 g/ha, after about 3 weeks
Source text: as §2

| SMILES | pest or weed control at 1280 g/ha [1] | pest or weed control at 1280 g/ha [2] | Pharbitis purpurea, herbicidal activity rated visually [3] | pest or weed control at 1280 g/ha [4] | pest or weed control at 1280 g/ha [6] | inhibition at 100 µM (stock) [7] | Alopecurus myosuroides, herbicidal effect scored visually [8] | pest or weed control at 1280 g/ha [9] | pest or weed control at 1280 g/ha [10] | Abutilon theophrasti, herbicidal effect scored visually [11] | pest or weed control at 1280 g/ha [12] | pest or weed control at 1280 g/ha [13] | Polygonum convolvulus, herbicidal effect scored visually [14] | Amaranthus retroflexus, herbicidal activity rated visually [15] | Alopecurus myosuroides, herbicidal activity rated visually [16] | Matricaria inodora, herbicidal activity rated visually [17] | Lolium rigidum, herbicidal effect scored visually [20] | also measured |
| --- | --- | --- | --- | --- | --- | --- | --- | --- | --- | --- | --- | --- | --- | --- | --- | --- | --- | --- |
| CCCc1nsc(N2C(=O)C(C)=C(C)C2O)n1 (centres unmarked) [I.2-4, 3,4-Dimethyl-5-hydroxy-1-[3-(n-propyl)-1,2,4-thiadiazol-5-yl)-1,5-dihydro-2H-pyrrol-2-one] | 80% | 100% | 90% | 90% | 80% | > 90% | 90% | 100% | 100% | 80% | 100% | 100% | 100% | – | – | – | – | Hordeum murinum, herbicidal activity rated visually [5]: 80% |
| CC1=C(Cl)C(=O)N(c2nc(C3CC3)ns2)C1O (centres unmarked) [I.3-11, 3-Chloro-4-methyl-5-hydroxy-1-(3-cyclopropyl-1,2,4-thiadiazol-5-yl)-1,5-dihydro-2H-pyrrol-2-one] | 100% | – | 100% | 100% | 100% | > 90% | 100% | 100% | 90% | 80% | 100% | 100% | 80% | 100% | 80% | 90% | 80% | Veronica persica, herbicidal activity rated visually ([18]; 1280 g/ha): 80%; Pharbitis purpurea, herbicidal effect scored visually [19]: 100% |
| CN1CC(O)N(c2ncns2)C1=O (centres unmarked) [I.13-1, 4-Hydroxy-1-methyl-3-[1,2,4-thiadiazol-5-yl]-imidazolidin-2-one] | 90% | 80% | 90% | 100% | 100% | 50 to 70% | – | 100% | 80% | – | – | 100% | – | 100% | 80% | – | – | Polygonum convolvulus, herbicidal activity rated visually [21]: 100%; Veronica persica, herbicidal activity rated visually ([18]; 320 g/ha): 80%; Amaranthus retroflexus, herbicidal effect scored visually ([22]; 320 g/ha): 100%; pest or weed control at 320 g/ha ([12]; 320 g/ha): 90%; Veronica persica, herbicidal effect scored visually [23]: 90% |
| COC(=O)OC1C(C)=C(C)C(=O)N1c1nc(C2CC2)ns1 (centres unmarked) [I.17-11, 3,4-Dimethyl-5-methoxycarbonyloxy-1-[3-(cyclopropyl)-1,2,4-thiadiazol-5-yl]-1,5-dihydro-2H-pyrrol-2-one] | 100% | 100% | – | 100% | – | – | – | 100% | 100% | 100% | 100% | – | – | 100% | – | 100% | 90% | Echinochloa crus-galli, herbicidal activity rated visually [24]: 100%; Amaranthus retroflexus, herbicidal effect scored visually ([22]; 1280 g/ha): 100%; Echinochloa crus-galli, herbicidal effect scored visually [25]: 100%; Poa annua, herbicidal effect scored visually [26]: 100% |
